Measurements: patent US8592648B2, “Seed treatment with combinations of pyrethrins/pyrethroids and thiamethoxam” (Monsanto Technology, LLC, priority 2000, dated 2013)

Experiments:
[1] = system: black cutworm larvae; assay: Black cutworm feeding damage on corn shoots and foliage, seed treatment vs soil granular treatment (Reference Example 1); assay type: in vivo; details: for Plant Defol. 3 DAI / Plant Defol. 7 DAI / Plant Defol. 10 DAI: rating 1=no damage, 10=complete defoliation
Procedure: This example compares the efficacy of seed treatment with lambda-cyhalothrin (CAS #91465-08-6) to soil granular treatments with tefluthrin (CAS #79538-32-2) against feeding damage by black cutworm larvae on shoots and foliage.
(§1) A lambda-cyhalothrin seed treatment formulation was prepared by diluting the WARRIOR® T insecticide (Zeneca Ag Products, Wilmington, Del.), which contains 11.4% lambda-cyhalothrin as the active ingredient, into water as a carrier. This formulation was applied for one minute at room temperature to twenty-five grams of Pioneer corn seed (Cultivar PN3394) in a rotostatic seed treater at a rate of 125 g, 250 g or 500 g active ingredient (Al) to 100 kg seed. The treated seeds were allowed to sit uncapped for four to twenty-four hours before planting.
(§2) Treated and untreated seeds (Pioneer hybrid PN3394) were planted in a soil mix consisting of Dupo silt loam, 30% Perlite, 20% coarse sand (WB-10 grade) in six groups of tubs (20 in. L×15 in. W×8 in. D). Twelve seeds were planted per tub and three tubs were planted for each treatment regimen. Soil applications of FORCE® 3GR, which contains 3% tefluthrin granule as the active ingredient, were used for two sets of tubs containing untreated seeds. The FORCE 3GR was applied either in-furrow or incorporated into a 5 inch band on the soil surface at the time of planting. The tubs were overhead irrigated until the plants were infested with black cutworm larvae.
The rate of application for the FORCE 3GR was reported in units of grams of the active ingredient per hectare (g/ha), while the rate of application of the WARRIOR T to the seeds was reported in units of grams of the active ingredient per 100 kilograms of the seeds (g/100 kg). Although the conversion of one of these units to the other will vary somewhat according to the type of seed that is being used, the size and weight of the seed, and the density of planting that is used—among other things—an approximate conversion for corn seed can be carried out as follows. Assuming a seed application rate of lambda cyhalothrin of, for example, 125 g/100 kg of seed and a planting density of 15 lbs seed/ac, about 14.7 acres can be planted with 100 kg of the seed. This is an effective application rate of about 8.5 g of lambda cyhalthrin per acre. At 2.47 ac/ha, the seed treatment level of 125 g/100 kg is approximately equivalent to a surface banding treatment at about 21 g/ha.
The corn plants were infested at 12 DAP, which corresponds to late growth stage V1 by placing two black cutworm larvae at ¾ instar on the soil surface near the base of the plant. Plants were rated 3, 7 and 10 days after infestation (DAI) for the number of cut plants, as well as damage from leaf feeding. The percent stand reduction due to plant cutting was calculated by dividing the number of cut plants into the number of plants present at infestation. The foliar feeding injury was evaluated using a rating scale of 1=no damage and 10=complete defoliation.

[2] = system: corn plants (Pioneer hybrid PN3394); assay: Vigor rating of corn plants before infestation (indication of phytotoxicity); assay type: in vivo; details: rating 1=extremely low vigor, 10=highest
Procedure: as §1, §2
At twelve days after planting (DAP) but before infestation, the overall health of each plant was rated by looking at emergence, height and appearance. This vigor rating gives an indication of any phytotoxicity from the seed or soil treatment. A rating of 1 indicates extremely low vigor while 10 is the highest vigor rating.

Cc1c(F)c(F)c(COC(=O)[C@@H]2[C@H](/C=C(\Cl)C(F)(F)F)C2(C)C)c(F)c1F (racemic) [Tefluthrin, (2,3,5,6-tetrafluoro-4-methylphenyl)-methyl-(1 alpha, 3 alpha)-(Z)-(±)-3-(2-chloro-3,3,3-trifluoro-1-propenyl)-2,2-dimethylcyclopropanecarboxylate] was tested, and the “% Stand Reduct'n 3 DAI” value ([1]; banded 30 g/ha (FORCE 3GR)) was 0.0%, the “Vigor at 12 DAP” value ([2]; banded 30 g/ha (FORCE 3GR)) was 8.7 and the “Vigor at 12 DAP” value ([2]; in-furrow 30 g/ha (FORCE 3GR)) was 9.0.

CC1(C)[C@H](C(=O)O[C@H](C#N)c2cccc(Oc3ccccc3)c2)[C@@H]1/C=C(\Cl)C(F)(F)F [λ-cyhalothrin, [1 alpha(s), 3 alpha(z)]-cyano(3-phenoxyphenyl) methyl-3-(2-chloro-3,3,3-trifluoro-1-propenyl)-2,2-dimethylcyclopropane carboxylate] was tested, and the “Plant Defol. 3 DAI” value ([1]; seed treatment 125 g/100 kg) was 4.3, the “Plant Defol. 7 DAI” value ([1]; seed treatment 125 g/100 kg) was 5.0 and the “Plant Defol. 10 DAI” value ([1]; seed treatment 125 g/100 kg) was 3.3. For the same compound, the “% Stand Reduct'n 3 DAI” value ([1]; seed treatment 250 g/100 kg) was 3.0%, the “Plant Defol. 3 DAI” value ([1]; seed treatment 250 g/100 kg) was 3.7 and the “% Stand Reduct'n 7 DAI” value ([1]; seed treatment 250 g/100 kg) was 3.0%. For the same compound, the “% Stand Reduct'n 7 DAI” value ([1]; seed treatment 250 g/100 kg, listed as lambda-cyhalothrin) was 3%, the “Plant Defol. 7 DAI” value ([1]; seed treatment 250 g/100 kg) was 2.7 and the “% Stand Reduct'n 10 DAI” value ([1]; seed treatment 250 g/100 kg) was 3.0%. For the same compound, the “Plant Defol. 10 DAI” value ([1]; seed treatment 250 g/100 kg) was 1.7, the “% Stand Reduct'n 3 DAI” value ([1]; seed treatment 500 g/100 kg) was 0.0% and the “Plant Defol. 3 DAI” value ([1]; seed treatment 500 g/100 kg) was 2.0. For the same compound, the “% Stand Reduct'n 7 DAI” value ([1]; seed treatment 500 g/100 kg) was 0.0%, the “% Stand Reduct'n 7 DAI” value ([1]; seed treatment 500 g/100 kg, listed as lambda-cyhalothrin) was 0% and the “Plant Defol. 7 DAI” value ([1]; seed treatment 500 g/100 kg) was 2.3. The “% Stand Reduct'n 10 DAI” value ([1]; seed treatment 500 g/100 kg) was 0.0%, the “Plant Defol. 10 DAI” value ([1]; seed treatment 500 g/100 kg) was 1.0 and the “protection of corn plants against shoot/foliar feeding damage by black cutworm” value ([1]; seed treatment prior to planting) was “significant protection”. The “Vigor at 12 DAP” value ([2]; seed treatment 125 g/100 kg) was 9.0, the “Vigor at 12 DAP” value ([2]; seed treatment 250 g/100 kg) was 8.3 and the “Vigor at 12 DAP” value ([2]; seed treatment 500 g/100 kg) was 8.3.
